Columns and labels:
in vitro = details: dog, MDCK
physchem = details: buffer, pH 7.4
in vivo [1] = details: rat, brain, iv, 1 mg/kg
in vivo [2] = details: rat, iv, 1 mg/kg
in vivo [3] = details: rat, po, 3 mg/kg
in vivo [4] = details: rat, po, 3 mg/kg; remark: listed apart in the source
in vivo [5] = details: rat, brain, iv, 0.5 mg/kg
in vivo [6] = details: rat, iv, 0.5 mg/kg
in vivo [7] = details: rat, po, 2 mg/kg
in vivo [8] = details: rat, po, 2 mg/kg; remark: listed apart in the source

SMILES	Papp A→B (in vitro)	logD (physchem)	other results
NC(=O)c1cc(NC(=O)c2cc(-c3ccccn3)c(F)cc2Cl)n(-c2ccccc2)n1	10 ×10⁻⁶ cm/s	2.7	–
NC(=O)c1cc(NC(=O)c2cc(-c3cccc(C(F)F)n3)ccc2Cl)n(-c2ccccc2)n1	8.5 ×10⁻⁶ cm/s	3.5	–
NC(=O)c1cc(NC(=O)c2cc(-c3cccc(N)n3)c(Cl)cc2Cl)n(-c2ccccc2)n1	11 ×10⁻⁶ cm/s	2.9	–
NC(=O)c1cc(NC(=O)c2cc(-c3ncccc3Cl)ccc2Cl)n(-c2ccccc2)n1	14 ×10⁻⁶ cm/s	2.8	Kp uu at 4 h (in vivo [1]): 0.076; Vd (in vivo [2]): 1.1 L/kg; Tmax (in vivo [3]): 0.9 h; bioavailability (in vivo [4]): 85%
O=C(NCCO)c1cc(NC(=O)c2cc(-c3ncccc3F)c(Cl)cc2Cl)n(-c2ccccc2)n1	13 ×10⁻⁶ cm/s	2.8	–
NC(=O)c1cc(NC(=O)c2cc(-c3ccccn3)c(OC(F)F)cc2Cl)n(-c2ccccc2)n1	13 ×10⁻⁶ cm/s	2.7	–
NC(=O)c1cc(NC(=O)c2cc(-c3ncccc3F)ccc2Cl)n(-c2ccccc2)n1	19 ×10⁻⁶ cm/s	2.6	Kp uu at 4 h (in vivo [1]): 0.1; Vd (in vivo [2]): 0.46 L/kg; Tmax (in vivo [3]): 4 h; bioavailability (in vivo [4]): 100%
NC(=O)c1cc(NC(=O)c2cc(-c3nc(N)ccc3Cl)ccc2Cl)n(-c2ccccc2)n1	11 ×10⁻⁶ cm/s	3.2	–
Cc1cc(Cl)c(C(=O)Nc2cc(C(N)=O)nn2-c2ccccc2)cc1-c1ccccn1	12 ×10⁻⁶ cm/s	2.6	–
NC(=O)c1cc(NC(=O)c2cc(-c3ccccn3)c(Cl)cc2Cl)n(-c2ccccc2)n1	17 ×10⁻⁶ cm/s	3	–
CC(=O)Nc1cccc(-c2ccc(Cl)c(C(=O)Nc3cc(C(N)=O)nn3-c3ccccc3)c2)n1	10 ×10⁻⁶ cm/s	2.7	–
NC(=O)c1cccc(-c2ccc(Cl)c(C(=O)Nc3cc(C(N)=O)nn3-c3ccccc3)c2)n1	6.1 ×10⁻⁶ cm/s	2.3	–
O=C(NC1COC1)c1cc(NC(=O)c2cc(-c3ccccn3)c(Cl)cc2Cl)n(-c2ccccc2)n1	11 ×10⁻⁶ cm/s	3	–
CC(C)(O)CNC(=O)c1cc(NC(=O)c2cc(-c3ncccc3F)c(Cl)cc2Cl)n(-c2ccccc2)n1	12 ×10⁻⁶ cm/s	3.3	Kp uu at 4 h (in vivo [5]): 0.015; Vd (in vivo [6]): 1.6 L/kg; Tmax (in vivo [7]): 3 h; bioavailability (in vivo [8]): 46%
NCCNC(=O)c1cc(NC(=O)c2cc(-c3ccccn3)c(Cl)cc2Cl)n(-c2ccccc2)n1	0.72 ×10⁻⁶ cm/s	0.94	–
O=C(NCCO)c1cc(NC(=O)c2cc(-c3ccccn3)c(C(F)(F)F)cc2Cl)n(-c2ccccc2)n1	8.5 ×10⁻⁶ cm/s	3	–
NC(=O)c1cc(NC(=O)c2cc(-c3ncccc3F)c(F)cc2Cl)n(-c2ccccc2)n1	23 ×10⁻⁶ cm/s	2.7	–
Cc1cc(NC(=O)c2ccc(Cl)cc2Cl)n(-c2ccccc2)n1	30 ×10⁻⁶ cm/s	3.3	–
O=C(NCCO)c1cc(NC(=O)c2cc(-c3ccccn3)c(Cl)cc2Cl)n(-c2ccccc2)n1	12 ×10⁻⁶ cm/s	2.8	–
NC(=O)c1cc(NC(=O)c2cc(-c3ccccn3)c(C3CC3)cc2Cl)n(-c2ccccc2)n1	–	3.1	–
CC(C)(O)CNC(=O)c1cc(NC(=O)c2cc(-c3ncccc3F)c(F)cc2Cl)n(-c2ccccc2)n1	17 ×10⁻⁶ cm/s	3.1	–
COc1cc(Cl)c(C(=O)Nc2cc(C(N)=O)nn2-c2ccccc2)cc1-c1ccccn1	13 ×10⁻⁶ cm/s	2.4	–

Reference: ChEMBL document CHEMBL4308832, “Discovery of Allosteric, Potent, Subtype Selective, and Peripherally Restricted TrkA Kinase Inhibitors” (J Med Chem, 2018)
